We go through one molecule from patent publication US5922771A, “Benzocycloalkene compounds, their production and use” (Takeda Chemical Industries, Ltd., priority 1995, dated 1999).

SMILES strings stand for the structures.

For this assay, the target named is melatonin receptor. As to the kind of experiment: Action of inhibiting 2-[^125 I]iodomelatonin binding. Further details: species or system chicken (white leghorn). The following applies: forebrain membranes of 7-day-old chickens; 80 pM 2-[^125 I]iodomelatonin; 90 minutes at 25° C., pH 7.7; read-out: IC50, inhibition of 2-[^125 I]iodomelatonin binding. The protocol:
The forebrains of 7-day-old chickens (white leghorn) were homogenized with ice-cooled assay-buffer (50 mM Tris-HCl, pH 7.7, at 25° C.) and centrifuged at 44,000×g for 10 minutes to give pellet. The pellet was washed once with the same buffer solution, which was further homogenized with the assay-buffer to make a protein concentration of 0.3-0.4 mg/mL. The homogenate was used as a membrane sample. In a test tube, the membrane sample and a ligand (80 pM 2-[^125 I]iodomelatonin,ca. 100,000 dpm) were mixed to make the whole volume 0.5 mL. The mixture was incubated for 90 minutes at 25° C., to which was added 3 mL of ice-cooled assay buffer, immediately followed vacuum filtration on Whatman GF/B which was further washed twice with 3 mL each of ice-cold assay buffer. The radioactivity on the filter was determined by means of gamma-counter. Specific binding was calculated by subtracting the non-specific binding which was determined in the presence of 10 μM melatonin. The 50% inhibiting concentration (IC50) was determined by the log-probit analysis.

Turning to `COc1ccc2c(c1)C(CCNC(=O)C(F)(F)F)=C(c1ccccc1)C2` [Working Example 1, 2,2,2-Trifluoro-N-[2-(5-methoxy-2-phenyl-1H-inden-3-yl)ethyl]acetamide], the IC50 was determined as 87 pM.
